Assays:
MCF7 = assay: cells; settings: Homo sapiens
Description: Anticancer activity against human MCF7 cells

UO-31 = assay: cells; settings: Homo sapiens
Description: Anticancer activity against human UO31 cells

KM12 = assay: cells; settings: Homo sapiens
Description: Anticancer activity against human KM12 cells

HT-29 = assay: cells; settings: Homo sapiens
Description: Anticancer activity against human HT-29 cells

SK-MEL-28 = assay: cells; settings: Homo sapiens
Description: Anticancer activity against human SK-MEL-28 cells

RXF 393 = assay: cells; settings: Homo sapiens
Description: Anticancer activity against human RXF393 cells

HCT-15 = assay: cells; settings: Homo sapiens
Description: Anticancer activity against human HCT15 cells

K562 = assay: cells; settings: Homo sapiens
Description: Anticancer activity against human K562 cells

CAKI-1 = assay: cells; settings: Homo sapiens
Description: Anticancer activity against human Caki1 cells

BT-549 = assay: cells; settings: Homo sapiens
Description: Anticancer activity against human BT549 cells

COLO 205 = assay: cells; settings: Homo sapiens
Description: Anticancer activity against human COLO205 cells

OVCAR-8 = assay: cells; settings: Homo sapiens, OVCAR-8, read-out: pGI50 (converted)
Description: Anticancer activity against human OVCAR8 cells

A549 = assay: cells; settings: Homo sapiens
Description: Anticancer activity against human A549 cells

HCT-116 = assay: cells; settings: Homo sapiens
Description: Anticancer activity against human HCT116 cells

NCI-H226 = assay: cells; settings: Homo sapiens
Description: Anticancer activity against human NCI-H226 cells

SK-MEL-5 = assay: cells; settings: Homo sapiens
Description: Anticancer activity against human SK-MEL-5 cells

NCI-H522 = assay: cells; settings: Homo sapiens
Description: Anticancer activity against human NCI-H522 cells

SN12C = assay: cells; settings: Homo sapiens
Description: Anticancer activity against human SN12C cells

Vero = assay: cells; settings: Chlorocebus sabaeus, 48 h
Description: Cytotoxicity against african green monkey Vero cells after 48 hrs by MTT assay

786-0 = assay: cells; settings: Homo sapiens
Description: Anticancer activity against human 786-0 cells

NCI-H460 = assay: cells; settings: Homo sapiens
Description: Anticancer activity against human NCI-H460 cells

SW-620 = assay: cells; settings: Homo sapiens
Description: Anticancer activity against human SW620 cells

DU-145 = assay: cells; settings: Homo sapiens
Description: Anticancer activity against human DU145 cells

NCI-H322M = assay: cells; settings: Homo sapiens
Description: Anticancer activity against human NCI-H322M cells

OVCAR-5 = assay: cells; settings: Homo sapiens
Description: Anticancer activity against human OVCAR5 cells

T47D = assay: cells; settings: Homo sapiens
Description: Anticancer activity against human T47D cells

ACHN = assay: cells; settings: Homo sapiens
Description: Anticancer activity against human ACHN cells

cells = settings: Homo sapiens
Description: Anticancer activity against human RPMI8266 cells

HCC 2998 = assay: cells; settings: Homo sapiens
Description: Anticancer activity against human HCC2998 cells

Description for physchem: Dissociation constant, pKa of the compound by UV-visible spectroscopy

C[n+]1c2ccccc2c(Nc2ccc(N3CCCCC3)cc2)c2[nH]c3ccccc3c21.[Cl-]
GI50 (MCF7; MCF7, read-out: pGI50 (converted)): 126 nM | CC50 (MCF7; MCF7, read-out: pLC50 (converted)): 912 nM | TGI (MCF7; MCF7, read-out: pTGI): 339 nM | GI50 (UO-31; UO-31, read-out: pGI50 (converted)): 145 nM | CC50 (UO-31; UO-31, read-out: pLC50 (converted)): 3020 nM | TGI (UO-31; UO-31, read-out: pTGI): 832 nM | GI50 (KM12; KM12, read-out: pGI50 (converted)): 372 nM | CC50 (KM12; KM12, read-out: pLC50 (converted)): 5130 nM | TGI (KM12; KM12, read-out: pTGI): 1480 nM | GI50 (HT-29; HT-29, read-out: pGI50 (converted)): 178 nM | CC50 (HT-29; HT-29, read-out: pLC50 (converted)): 2140 nM | TGI (HT-29; HT-29, read-out: pTGI): 550 nM | GI50 (SK-MEL-28; SK-MEL-28, read-out: pGI50 (converted)): 372 nM | CC50 (SK-MEL-28; SK-MEL-28, read-out: pLC50 (converted)): 3470 nM | TGI (SK-MEL-28; SK-MEL-28, read-out: pTGI): 1150 nM | GI50 (RXF 393; RXF 393, read-out: pGI50 (converted)): 174 nM | CC50 (RXF 393; RXF 393, read-out: pLC50 (converted)): 692 nM | TGI (RXF 393; RXF 393, read-out: pTGI): 347 nM | GI50 (HCT-15; HCT-15, read-out: pGI50 (converted)): 170 nM | CC50 (HCT-15; HCT-15, read-out: pLC50 (converted)): 912 nM | TGI (HCT-15; HCT-15, read-out: pTGI): 398 nM | CC50 (K562; K562, read-out: pLC50 (converted)): > 100000 nM | TGI (K562; K562, read-out: pTGI): > 100000 nM | GI50 (CAKI-1; CAKI-1, read-out: pGI50 (converted)): 234 nM | CC50 (CAKI-1; CAKI-1, read-out: pLC50 (converted)): 3160 nM | TGI (CAKI-1; CAKI-1, read-out: pTGI): 794 nM | GI50 (BT-549; BT-549, read-out: pGI50 (converted)): 1290 nM | CC50 (BT-549; BT-549, read-out: pLC50 (converted)): 5250 nM | TGI (BT-549; BT-549, read-out: pTGI): 2630 nM | GI50 (COLO 205; COLO 205, read-out: pGI50 (converted)): 141 nM | CC50 (COLO 205; COLO 205, read-out: pLC50 (converted)): 851 nM | TGI (COLO 205; COLO 205, read-out: pTGI): 347 nM | GI50 (OVCAR-8): 316 nM | GI50 (A549; A549, read-out: pGI50 (converted)): 162 nM | CC50 (A549; A549, read-out: pLC50 (converted)): > 100000 nM | TGI (A549; A549, read-out: pTGI): 589 nM | GI50 (HCT-116; HCT-116, read-out: pGI50 (converted)): 132 nM | CC50 (HCT-116; HCT-116, read-out: pLC50 (converted)): 100000 nM | TGI (HCT-116; HCT-116, read-out: pTGI): 363 nM | pKa (physchem): 10 | GI50 (NCI-H226; NCI-H226, read-out: pGI50 (converted)): 269 nM | TGI (NCI-H226; NCI-H226, read-out: pTGI): 1860 nM | GI50 (SK-MEL-5; SK-MEL-5, read-out: pGI50 (converted)): 229 nM | CC50 (SK-MEL-5; SK-MEL-5, read-out: pLC50 (converted)): 3470 nM | TGI (SK-MEL-5; SK-MEL-5, read-out: pTGI): 1200 nM | GI50 (NCI-H522; NCI-H522, read-out: pGI50 (converted)): 741 nM | TGI (NCI-H522; NCI-H522, read-out: pTGI): 2140 nM | GI50 (SN12C; read-out: pGI50 (converted)): 204 nM | CC50 (SN12C; read-out: pLC50 (converted)): 6760 nM | TGI (SN12C; read-out: pTGI): 1410 nM | IC50 (Vero): 4830 nM | GI50 (786-0; 786-0, read-out: pGI50 (converted)): 457 nM | CC50 (786-0; 786-0, read-out: pLC50 (converted)): 5500 nM | TGI (786-0; 786-0, read-out: pTGI): 1700 nM | GI50 (NCI-H460; NCI-H460, read-out: pGI50 (converted)): 145 nM | CC50 (NCI-H460; NCI-H460, read-out: pLC50 (converted)): 2290 nM | TGI (NCI-H460; NCI-H460, read-out: pTGI): 468 nM | GI50 (SW-620; SW-620, read-out: pGI50 (converted)): 105 nM | TGI (SW-620; SW-620, read-out: pTGI): 372 nM | GI50 (DU-145; DU-145, read-out: pGI50 (converted)): 398 nM | CC50 (DU-145; DU-145, read-out: pLC50 (converted)): 4170 nM | TGI (DU-145; DU-145, read-out: pTGI): 1480 nM | GI50 (NCI-H322M; read-out: pGI50 (converted)): 1020 nM | CC50 (NCI-H322M; read-out: pLC50 (converted)): 5500 nM | TGI (NCI-H322M; read-out: pTGI): 2400 nM | GI50 (OVCAR-5; OVCAR-5, read-out: pGI50 (converted)): 1070 nM | CC50 (OVCAR-5; OVCAR-5, read-out: pLC50 (converted)): 5500 nM | TGI (OVCAR-5; OVCAR-5, read-out: pTGI): 2400 nM | GI50 (T47D; read-out: pGI50 (converted)): 214 nM | TGI (T47D; read-out: pTGI): 603 nM | GI50 (ACHN; read-out: pGI50 (converted)): 288 nM | CC50 (ACHN; read-out: pLC50 (converted)): 3890 nM | TGI (ACHN; read-out: pTGI): 1450 nM | GI50 (cells; RPMI8266, read-out: pGI50 (converted)): 158 nM | CC50 (cells; RPMI8266, read-out: pLC50 (converted)): 1000 nM | TGI (cells; RPMI8266, read-out: pTGI): 398 nM | GI50 (HCC 2998; HCC 2998, read-out: pGI50 (converted)): 162 nM | CC50 (HCC 2998; HCC 2998, read-out: pLC50 (converted)): 813 nM | TGI (HCC 2998; HCC 2998, read-out: pTGI): 363 nM
